The source of these data is patent publication US20250034173A1, “PYRIDO[4,3-D]PYRIMIDINE COMPOUNDS” (PFIZER INC., priority 2023, published 2025).

Assay [1] deals with KRAS Wild Type (Homo sapiens (Human), UniProt P01116). Kind of assay: SPR binding affinity and kinetics, GTPγS-loaded KRAS Wild Type. Particulars: GTPγS loaded protein, geomean. The text has this:
(§1) No additional regeneration was used.
(§2) Compound dissociation was monitored for at least 3600 seconds. […] No additional regeneration was used.
(§3) The adequateness of the fit was judged by c2 values and the randomness of residue distribution.
In general terms: In SPR one partner is held on a chip, and binding of the other changes the refractive index at the surface.

Assay [2] concerns the target KRAS G12D (Homo sapiens (Human), UniProt P01116, G12D). Description: SPR binding affinity and kinetics, GTPγS-loaded KRAS G12D. Conditions: GTPγS loaded protein, geomean.
Description: as §1, §2, §3

Assay [3] concerns the target KRAS G12C (Homo sapiens (Human), UniProt P01116, G12C). Description: SPR binding affinity and kinetics, GTPγS-loaded KRAS G12C. Particulars: GTPγS loaded protein, geomean.
Description: as §1, §2, §3

Assay [4] deals with KRAS G12V (Homo sapiens (Human), UniProt P01116, G12V). Description: SPR binding affinity and kinetics, GTPγS-loaded KRAS G12V. Particulars: GTPγS loaded protein, geomean.
Description: as §1, §2, §3

For assay [5], the system named is H358 (non-small cell lung cancer cell line). Description: KRAS Cell Titer Glo (CTG) cell proliferation assay, H358. Type of assay: cell-based. Conditions: Homo sapiens, NCI-H358, 168 h; H358 cells, 7-day CTG, geomean IC50. The text has this: (§4) The CellTiter-Glo® (CTG) Luminescent Cell Viability Assay is a homogeneous method of determining the number of viable cells in culture based on quantitation of the ATP present, an indicator of metabolically active cells. The CTG is designed for use with multi-well formats, making it ideal for automated high-throughput screening (HTS), cell proliferation and cytotoxicity assays. The homogeneous assay procedure involves adding the single reagent (CellTiter-Glo® Reagent) directly to cells cultured in serum-supplemented medium. Cell washing, removal of medium and multiple pipetting steps are not required. The system detects as few as 15 cells per well in a 384-well format in 10 minutes after adding reagent and mixing.
(§5) Cells are grown in humidified 5% CO2 incubator at 37° C. using the culture conditions outlined below. All cell culture media reagents were purchased from Gibco. Cell lines purchased from ATCC: H358 (non-small cell lung cancer cell line), SW620 (colorectal cancer cell line), PANC08.13 (RPM11640+10% FBS+10 units/mL Insulin, pancreatic cancer cell line). Test and control compounds are dispensed as nanoliter drops according to desired final concentrations in 0.1% DMSO using Echo Acoustic Dispenser onto 384 assay plates (Corning, Cat #3764) prior to cell seeding. Cells were seeded in 40 μL volume per well at the following cell densities (cells per well): H358 (300), SW620 (750), PANC 08.13 (600). Cells are incubated in the presence of compound for 7-days. Viability is determined on Day 7 using CellTiter-Glo® (CTG) Luminescent Cell Viability Assay (Promega). CTG is added to a […] per well and incubated at room temperature for 15 minutes before luminescence is captured using an EnVision Reader with LUM384 US protocol. Data is analyzed using Activity Base to determine compound response and will be represented either as a percent effect (PCTEFF) or percent control (PCTOCTL) as described: Zero percent effect control (ZPE) (Negative control)—100% DMSO. Hundred percent effect (HPE) (Positive control)—1 uM Trametinib (GSK1120212, MEK inhibitor) (4 nl of 10 mM and 36 nl of DMSO per well). The following equations/nomenclature are used (% Effect; PCTEFF) and (% of Control; PCTOCTL): PCTEFF: 100*(Raw_Data_Value−HPE/ZPE−HPE), PCTOCTL: 100*Raw_Data_Value/User_Defined_Array), where the User_Defined_Array is either summarized HPE or ZPE.
(§6) Cells with “nd” indicate compound not tested in that particular assay at time of writing. It is to be understood that the geomean IC50 data may change slightly over time with increasing repeat data (ie: increasing n #).
(In general: ATP-based viability assays read luminescence as a measure of living cells.)

The subject of assay [6] is SW620 (colorectal cancer cell line). Kind of assay: KRAS Cell Titer Glo (CTG) cell proliferation assay, SW620. Type of assay: cell-based. Conditions: Homo sapiens, SW-620, 168 h; SW620 cells, 7-day CTG, geomean IC50.
Description: as §4, §5, §6

Assay [7] deals with PANC08.13 (pancreatic cancer cell line). Description: KRAS Cell Titer Glo (CTG) cell proliferation assay, PANC08.13. The class given is cell-based. Particulars: Homo sapiens, PANC-08-13, 168 h; PANC08.13 cells, 7-day CTG, geomean IC50.
Description: as §4, §5, §6

Chain of KRAS Wild Type (P01116 other isoform, or with tags, fused parts or gaps): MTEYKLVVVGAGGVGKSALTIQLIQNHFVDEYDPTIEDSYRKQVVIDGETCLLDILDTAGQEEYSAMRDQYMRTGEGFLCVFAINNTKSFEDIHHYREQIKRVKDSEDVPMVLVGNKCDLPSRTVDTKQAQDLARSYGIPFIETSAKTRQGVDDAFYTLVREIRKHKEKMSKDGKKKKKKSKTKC
Chain of KRAS G12D (P01116 other isoform, or with tags, fused parts or gaps G12D): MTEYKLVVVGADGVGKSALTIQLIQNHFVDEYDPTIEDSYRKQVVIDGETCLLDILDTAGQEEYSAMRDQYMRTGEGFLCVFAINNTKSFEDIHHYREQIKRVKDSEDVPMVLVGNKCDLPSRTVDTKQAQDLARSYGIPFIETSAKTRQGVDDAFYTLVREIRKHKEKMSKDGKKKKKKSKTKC
Chain of KRAS G12V (P01116 other isoform, or with tags, fused parts or gaps G12V): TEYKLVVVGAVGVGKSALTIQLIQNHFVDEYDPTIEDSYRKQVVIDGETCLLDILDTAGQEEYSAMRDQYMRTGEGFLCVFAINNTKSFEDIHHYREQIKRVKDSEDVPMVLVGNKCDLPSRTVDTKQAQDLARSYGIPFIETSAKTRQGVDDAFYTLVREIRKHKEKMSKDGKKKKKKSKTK
Chain of KRAS G12C (P01116 other isoform, or with tags, fused parts or gaps G12C): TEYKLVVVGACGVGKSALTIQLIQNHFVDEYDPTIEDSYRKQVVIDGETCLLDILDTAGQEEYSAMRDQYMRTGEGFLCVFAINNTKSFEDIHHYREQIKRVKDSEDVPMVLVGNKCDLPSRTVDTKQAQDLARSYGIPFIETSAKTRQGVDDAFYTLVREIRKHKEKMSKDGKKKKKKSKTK

Take `C=C1CN2CCC[C@@]2(COc2nc3c4c(nc(-c5cccc6[nH]ncc56)c(F)c4n2)OC[C@@H]2COCCCN32)C1` [Example 34, (8aS)-4-fluoro-5-(1H-indazol-4-yl)-2-{[(7aS)-2-methylidenetetrahydro-1H-pyrrolizin-7a(5H)-yl]methoxy}-8a,9,12,13-tetrahydro-8H,11H-7,10-dioxa-1,3,6,13a-tetraazanaphtho[1,8-ab]heptalene]: the Kd in assay [1], in assay [2], in assay [3] and in assay [4] was above 10 µM throughout. In addition, the IC50 – broadly, the point on the concentration scale where inhibition reaches its midpoint – is above 9.99 µM in assay [5], above 9.99 µM in assay [6] and 9.35 µM in assay [7].
Regarding `C=C1CN2CCC[C@@]2(COc2nc3c4c(nc(-c5c6c(cc7[nH]ncc57)CCCC6)c(F)c4n2)OC[C@@H]2COCCCN32)C1` [Example 50, (8aS)-4-fluoro-2-{[(7aS)-2-methylidenetetrahydro-1H-pyrrolizin-7a(5H)-yl]methoxy}-5-(5,6,7,8-tetrahydro-1H-benzo[f]indazol-4-yl)-8a,9,12,13-tetrahydro-8H,11H-7,10-dioxa-1,3,6,13a-tetraazanaphtho[1,8-ab]heptalene], the Kd (usually the constant that tells how readily two partners part at equilibrium) stood at 0.053 µM in assay [1], 0.031 µM in assay [2], 0.047 µM in assay [3] and 0.042 µM in assay [4]. Moreover, the IC50 in assay [5] is 0.206 µM; in assay [6] it was 0.075 µM; in assay [7] it was 0.105 µM.
As to `OC/C=C1\CN2CCC[C@@]2(COc2nc3c4c(nc(-c5c(C6CC6)c(Cl)cc6[nH]ncc56)c(F)c4n2)OC[C@@H]2COCCCN32)C1` [Example 44, (2Z)-2-[(7aS)-7a-({[(8aS)-5-(6-chloro-5-cyclopropyl-1H-indazol-4-yl)-4-fluoro-8a,9,12,13-tetrahydro-8H,11H-7,10-dioxa-1,3,6,13a-tetraazanaphtho[1,8-ab]heptalen-2-yl]oxy}methyl)tetrahydro-1H-pyrrolizin-2(3H)-ylidene]ethan-1-ol], the Kd in assay [1] worked out at 0.003 µM; in assay [2], 0.002 µM; in assay [3] it was 0.003 µM; in assay [4] it was 0.003 µM. The IC50 in assay [5] came out at 0.043 µM; in assay [6], 0.094 µM; in assay [7], 0.125 µM.
Consider `C=C1CN2CCC[C@@]2(COc2nc3c4c(nc(-c5c6c(cc7[nH]ncc57)CCC[C@@H]6C)c(F)c4n2)OC[C@@H]2COCCCN32)C1` [Example 32, (8aS)-4-fluoro-2-{[(7aS)-2-methylidenetetrahydro-1H-pyrrolizin-7a(5H)-yl]methoxy}-5-[(5S)-5-methyl-5,6,7,8-tetrahydro-1H-benzo[f]indazol-4-yl]-8a,9,12,13-tetrahydro-8H,11H-7,10-dioxa-1,3,6,13a-tetraazanaphtho[1,8-ab]heptalene], for which the Kd in assay [1] was found to be 0.046 µM; in assay [2] it was 0.019 µM; in assay [3] it was 0.039 µM; in assay [4], 0.036 µM. In addition, the half-inhibitory concentration (IC50) in assay [5] turned out to be 0.768 µM; in assay [6], 1.42 µM; in assay [7], 0.161 µM.
Regarding `C=C1CN2CCC[C@@]2(COc2nc3c4c(nc(-c5c(C6CC6)c(Cl)cc6[nH]ncc56)c(F)c4n2)OC[C@@H]2COCC[C@H](C)N32)C1` [Example 38, (8aS,13S)-5-(6-chloro-5-cyclopropyl-1H-indazol-4-yl)-4-fluoro-13-methyl-2-{[(7aS)-2-methylidenetetrahydro-1H-pyrrolizin-7a(5H)-yl]methoxy}-8a,9,12,13-tetrahydro-8H,11H-7,10-dioxa-1,3,6,13a-tetraazanaphtho[1,8-ab]heptalene], the Kd in assay [1] amounted to 0.004 µM; in assay [2] it was 0.002 µM; in assay [3], 0.003 µM; in assay [4] it was 0.004 µM. Also, the IC50 in assay [5] came to 0.008 µM; in assay [6], 0.018 µM; in assay [7], 0.002 µM.
`Fc1c(-c2c(C3CC3)c(Cl)cc3[nH]ncc23)nc2c3c(nc(OC[C@@]45C[C@@H](F)CN4CC4(CC4)C5)nc13)N1CCCOC[C@H]1CO2` [Example 35, (8aS)-2-{[(6′R,7′aR)-6′-fluorodihydro-1′H,3′H-spiro[cyclopropane-1,2′-pyrrolizin]-7′a(5′H)-yl]methoxy}-5-(6-chloro-5-cyclopropyl-1H-indazol-4-yl)-4-fluoro-8a,9,12,13-tetrahydro-8H,11H-7,10-dioxa-1,3,6,13a-tetraazanaphtho[1,8-ab]heptalene]: the Kd in assay [1] amounted to 0.011 µM; in assay [2], 0.008 µM; in assay [3], 0.012 µM; in assay [4] it was 0.012 µM. Besides, the IC50 in assay [5] amounted to 0.126 µM; in assay [6], 0.049 µM; in assay [7], 0.01 µM.
Turning to `C=C1CN2CCC[C@@]2(COc2nc3c4c(nc(-c5c6c(cc7[nH]ncc57)CCC[C@H]6OC)c(F)c4n2)OC[C@@H]2COCCCN32)C1` (single isomer, unassigned) [Example 56, (8aS)-4-fluoro-5-[(5R*)-5-methoxy-5,6,7,8-tetrahydro-1H-benzo[f]indazol-4-yl]-2-{[(7aS)-2-methylidenetetrahydro-1H-pyrrolizin-7a(5H)-yl]methoxy}-8a,9,12,13-tetrahydro-8H,11H-7,10-dioxa-1,3,6,13a-tetraazanaphtho[1,8-ab]heptalene], the Kd is 0.023 µM in assay [1], 0.034 µM in assay [2], 0.01 µM in assay [3] and 0.023 µM in assay [4]. Further, the IC50 in assay [5] stood at 0.172 µM; in assay [6], 0.063 µM; in assay [7], 0.135 µM.
Turning to `Fc1c(-c2c(C3CC3)c(Cl)cc3[nH]ncc23)nc2c3c(nc(OC[C@@]45CCCN4CC(=C4CCOCC4)C5)nc13)N1CCCOC[C@H]1CO2` [Example 42, (8aS)-5-(6-chloro-5-cyclopropyl-1H-indazol-4-yl)-4-fluoro-2-{[(7aS)-2-(oxan-4-ylidene)tetrahydro-1H-pyrrolizin-7a(5H)-yl]methoxy}-8a,9,12,13-tetrahydro-8H,11H-7,10-dioxa-1,3,6,13a-tetraazanaphtho[1,8-ab]heptalene], the Kd amounted to 0.068 µM in assay [1], 0.024 µM in assay [2], 0.033 µM in assay [3] and 0.032 µM in assay [4]. The IC50 stood at 0.288 µM in assay [5], 0.233 µM in assay [6] and 0.044 µM in assay [7].
For the compound `C=C1CN2C[C@@H](O)C[C@@]2(COc2nc3c4c(nc(-c5c(C6CC6)c(Cl)cc6[nH]ncc56)c(F)c4n2)OC[C@@H]2COCCCN32)C1` [Example 17, (2S,7aR)-7a-({[(8aS)-5-(6-chloro-5-cyclopropyl-1H-indazol-4-yl)-4-fluoro-8a,9,12,13-tetrahydro-8H,11H-7,10-dioxa-1,3,6,13a-tetraazanaphtho[1,8-ab]heptalen-2-yl]oxy}methyl)-6-methylidenehexahydro-1H-pyrrolizin-2-ol], the Kd in assay [1] amounted to 0.005 µM; in assay [2] it was 0.003 µM; in assay [3], 0.005 µM; in assay [4] it was 0.004 µM. The IC50 came to 0.08 µM in assay [5], 0.19 µM in assay [6] and 0.031 µM in assay [7].
Take `CN(C)C(=O)/C=C1\CN2CCC[C@@]2(COc2nc3c4c(nc(-c5c(C6CC6)c(Cl)cc6[nH]ncc56)c(F)c4n2)OC[C@@H]2COCCCN32)C1` [Example 43, (2Z)-2-[(7aS)-7a-({[(8aS)-5-(6-chloro-5-cyclopropyl-1H-indazol-4-yl)-4-fluoro-8a,9,12,13-tetrahydro-8H,11H-7,10-dioxa-1,3,6,13a-tetraazanaphtho[1,8-ab]heptalen-2-yl]oxy}methyl)tetrahydro-1H-pyrrolizin-2(3H)-ylidene]-N,N-dimethylacetamide]: the Kd is 0.742 µM in assay [1], 0.493 µM in assay [2], 0.539 µM in assay [3] and 0.677 µM in assay [4]. Besides, the IC50 is above 9.99 µM in assay [5], above 9.99 µM in assay [6] and 5.51 µM in assay [7].
